Assay results published in ChEMBL document CHEMBL1671852, “In vitro activities of linezolid against clinical isolates of Mycobacterium tuberculosis complex isolated in Taiwan over 10 years” (2008).
Values after ≈ are worked out from the molar mass of the structure shown.

Key:
[1] = test system: Mycobacterium tuberculosis; assay: Antibacterial activity against multidrug-resistant Mycobacterium tuberculosis by agar proportion method; assay type: functional
[2] = test system: Mycobacterium tuberculosis; assay: Antibacterial activity against multidrug-resistant Mycobacterium tuberculosis harboring gyrA D94A mutation by agar proportion method; assay type: functional

**Q.** Which MIC50 [1] does the source give for `CC(=O)NC[C@H]1CN(c2ccc(N3CCOCC3)c(F)c2)C(=O)O1` [LINEZOLID] here?
**A.** 0.5 µg/mL (≈ 1.48 µM)

**Q.** What about the MIC90 [1] of the same molecule?
**A.** 0.5 µg/mL (≈ 1.48 µM)

**Q.** What about the MIC [2] of the same molecule?
**A.** 4 µg/mL (≈ 11.9 µM)
